How the values were obtained:
[1] = biological target: HDAC1 (Homo sapiens, UniProt Q13547); test: Reporter displacement assay (HDAC1); format: binding
[2] = biological target: T1, HDAC2 (Homo sapiens, UniProt Q92769); test: Reporter displacement assay (HDAC2); format: binding
T1 construct: purchased Proteros

[3] = biological target: T1, HDAC2; test: Reporter displacement assay (HDAC2); format: binding; conditions: 20 nM HDAC2, 180 nM reporter probe, read after 4 hours; Kd by Cheng Prusoff equation
Description: HDAC2 containing a C-terminal HIS-Tag (Proteros) and fluorescently-labeled anti-HIS-antibody are diluted in one vial in assay buffer 50 mM Tris, pH 8.0, 1 mM DTT, 150 mM NaCl, and 0.01% Tween20. Components are pre-incubated for 30 min, then a small volume of reporter probe (Proteros) is added from a highly concentrated stock and incubation is continued for another 30 min. […] Ten µl/well of pre-formed complex are transferred into 384 well assay plates (Corning). Compounds to be profiled are serially diluted from 1x10^1 - 5.7x10^-5 mM in DMSO and 60 nl are added to assay plates by pintool transfer (CybiWell, Cybio). Fluorescence intensity signal is read after 4 hours in a Pherastar FS (BMG Labtech) at 337/665 nm. For Kd determination, percent probe displacement values are calculated for each compound concentration and plotted against the compound concentration. […] Since the reporter probe is used at a concentration reflecting its own Kd value, compound Kd values can be calculated according to the Cheng Prusoff equation. […] Table 4. HDAC1 and HDAC2 Kd Values for Exemplary Compounds Useful in the Invention

[4] = system: SH-SY5Y cells; test: Cell assay in SH-SY5Y cells with HDAC-Glo 2 reagent; format: cell-based; conditions: Homo sapiens, 5 h, five hours at 37°C, CI-994 at 100 uM defined as 100% inhibition
Description: SH-SY5Y cells (Sigma) were cultured in Eagle's Modified Essential Medium supplemented with 10% fetal bovine serum and pen/strep. Twenty-four hours prior to compound dosing 20 uL of cells were plated in white 384 well plates at a density of 1,500 cells/well. Compounds were serially diluted in neat DMSO and then diluted 1:100 v/v into media without FBS and mixed. Media was removed from the plated cells and the diluted compounds in serum free media (1% v/v final DMSO) were added and incubated at 37°C for five hours. Ten uL of HDAC-Glo 2 reagent with 0.1% Triton X-100 was then added, the plate was mixed and allowed to develop at room temperature for 100 minutes. Plates were then read with a Spectramax LMax luminometer employing a 0.4s integration time. Dose response curves were constructed with normalized data where CI-994 at 100 uM was defined as 100% inhibition and DMSO alone as 0% inhibition. Table 5. IC50 and EC50 Values for Exemplary Compounds Useful in the Invention

[5] = system: recombinant human HDACs; test: HDAC enzymatic assay (LabChip capillary electrophoresis); format: biochemical; conditions: 5 nM HDAC enzyme, 1 uM substrate, 5 hours pre-incubation, 17 hours reaction at 25°C; isoform not given
Method in brief: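 Recombinant human HDAC (5 nM) was pre-incubated with compound for 5 h at 25 °C, then reacted with 1 µM FAM-TSRHK(Ac)KL substrate for 17 h at 25 °C in HEPES pH 7.5, 1% DMSO. Reactions were stopped with SDS, and substrate and product were separated by capillary electrophoresis and read as P/(S+P). IC50 was fitted by 4-parameter logistic from 12-point 3-fold dilutions starting at 30 µM, run in duplicate.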

T1 sequence (Q92769 whole entry): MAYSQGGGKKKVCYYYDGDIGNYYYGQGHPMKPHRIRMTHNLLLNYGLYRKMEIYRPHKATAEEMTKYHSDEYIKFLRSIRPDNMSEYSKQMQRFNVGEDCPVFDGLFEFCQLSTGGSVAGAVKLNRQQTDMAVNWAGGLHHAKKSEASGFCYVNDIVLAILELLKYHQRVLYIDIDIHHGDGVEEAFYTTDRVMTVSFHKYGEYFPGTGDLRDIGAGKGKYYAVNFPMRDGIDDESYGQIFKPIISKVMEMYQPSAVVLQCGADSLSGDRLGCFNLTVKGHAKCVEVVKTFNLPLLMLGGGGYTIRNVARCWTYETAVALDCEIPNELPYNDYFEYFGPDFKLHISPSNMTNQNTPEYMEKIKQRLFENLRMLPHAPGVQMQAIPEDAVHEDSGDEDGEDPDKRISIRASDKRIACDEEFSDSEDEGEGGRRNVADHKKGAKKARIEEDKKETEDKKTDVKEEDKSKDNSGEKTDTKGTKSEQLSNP
HDAC1, sequence (Q13547 whole entry): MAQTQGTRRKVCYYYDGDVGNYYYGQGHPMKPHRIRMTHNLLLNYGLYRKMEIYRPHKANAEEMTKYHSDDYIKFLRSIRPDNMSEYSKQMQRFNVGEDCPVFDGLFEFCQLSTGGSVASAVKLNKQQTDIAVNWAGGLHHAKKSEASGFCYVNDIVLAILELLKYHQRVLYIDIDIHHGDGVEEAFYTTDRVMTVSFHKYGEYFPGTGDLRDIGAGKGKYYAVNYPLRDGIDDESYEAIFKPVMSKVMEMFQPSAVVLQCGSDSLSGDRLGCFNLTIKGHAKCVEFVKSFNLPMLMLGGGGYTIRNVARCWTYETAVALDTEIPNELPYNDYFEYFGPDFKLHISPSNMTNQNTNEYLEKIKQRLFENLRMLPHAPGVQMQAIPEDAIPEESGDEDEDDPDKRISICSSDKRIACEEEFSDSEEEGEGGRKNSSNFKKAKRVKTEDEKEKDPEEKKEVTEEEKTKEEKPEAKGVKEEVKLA

Kd [1] [nM] | residence time [1] [min] | residence time [2] [min] | Kd [3] [nM] | EC50 [4] [nM] | IC50 [5] [nM] | Structure (SMILES)
100 to 500 | 196 | 703 | 100 to 500 |  |  | Nc1cc(F)c(-c2ccc(F)cc2)cc1NC(=O)N1Cc2ccncc2C1 [Compound 100]
> 5000 |  |  | > 5000 |  |  | Nc1nn(-c2ccccc2)cc1NC(=O)N1Cc2ccncc2C1 [Compound 101]
> 5000 |  |  | > 5000 |  |  | Nc1nn(-c2ccc(F)cc2)cc1NC(=O)N1Cc2ccncc2C1 [Compound 102]
> 5000 |  |  | > 5000 |  |  | Nc1nn(-c2ccncc2)cc1NC(=O)N1Cc2ccncc2C1 [Compound 103]
> 5000 |  |  | > 5000 |  |  | Nc1ncc(-c2ccc(F)cc2)cc1NC(=O)N1CC2CCCC2C1 (stereo not drawn) [Compound 104]
500 to 5000 | 851 | 634 | 500 to 5000 |  |  | Nc1cnc(-c2ccc(F)cc2)cc1NC(=O)N1CCCC1 [Compound 105]
> 5000 | 121 |  | > 5000 |  |  | Nc1cnc(-c2ccc(F)cc2)cc1NC(=O)C1CCOCC1 [Compound 106]
500 to 5000 | 653 | 1280 | 500 to 5000 |  |  | Nc1ccc(-c2ccc(F)cc2)nc1NC(=O)N1CCCC1 [Compound 107]
500 to 5000 | 401 | 1430 | 500 to 5000 |  |  | Nc1cnc(-c2ccncc2)cc1NC(=O)N1CCCC1 [Compound 108]
> 5000 | 14 | 264 | 500 to 5000 |  |  | Nc1ccc(-c2ccc(F)cc2)nc1NC(=O)C1CCOCC1 [Compound 109]
500 to 5000 | 688 |  | > 5000 |  |  | Nc1cnc(-c2ccc(F)cc2)nc1NC(=O)N1CCCC1 [Compound 110]
> 5000 | 151 | 540 | > 5000 |  |  | Nc1ccc(-c2ccncc2)nc1NC(=O)N1CCCC1 [Compound 111]
100 to 500 | 329 | 790 | 100 to 500 |  |  | Nc1ccc(-c2ccc(F)cc2)c(F)c1NC(=O)N1CCCC1 [Compound 112]
< 100 | 350 | 609 | 100 to 500 |  |  | Nc1ccc(-c2ccc(F)cc2)c(F)c1NC(=O)N1Cc2nccnc2C1 [Compound 113]
> 5000 | 49 |  | > 5000 |  |  | Nc1cc(F)c(-c2ccc(F)cc2)cc1NC(=O)N1CCCC1 [Compound 114]
500 to 5000 | 87 | 114 | 500 to 5000 |  |  | Nc1cc(F)c(-c2ccc(F)c(F)c2)cc1NC(=O)N1CCCC1 [Compound 116]
> 5000 |  | 42 | > 5000 |  |  | Nc1ccc(-c2ccc(F)c(F)c2)c(F)c1NC(=O)N1CCCC1 [Compound 117]
500 to 5000 | 69 | 176 | 500 to 5000 |  |  | Nc1ccc(-c2ccc(F)cc2)c(F)c1NC(=O)C1CCOCC1 [Compound 118]
100 to 500 | 126 | 1200 | 100 to 500 |  |  | Nc1cc(F)c(-c2ccc(F)cc2)cc1NC(=O)N1Cc2nccnc2C1 [Compound 119]
100 to 500 | 830 | 1170 | 500 to 5000 |  |  | Nc1ccc(-c2ccc(F)cc2)nc1NC(=O)N1Cc2nccnc2C1 [Compound 120]
500 to 5000 | 682 | 1200 | > 5000 |  |  | Nc1cnc(-c2ccc(F)cc2)nc1NC(=O)N1Cc2nccnc2C1 [Compound 121]
100 to 500 | 572 | 2380 | 100 to 500 |  |  | Nc1cn(-c2ccccc2)nc1NC(=O)N1Cc2ccncc2C1 [Compound 122]
 |  |  |  | 100 to 500 | 100 to 500 | CN1CCN(c2ccc3c(n2)CN(C(=O)Nc2nc(-c4ccc(F)cc4)ccc2N)C3)CC1 [Compound 391]
 |  |  |  | 500 to 5000 | > 5000 | Nc1ccc(-c2cccnc2)nc1NC(=O)N1Cc2ccc(CO)cc2C1 [Compound 395]
 |  |  |  | 100 to 500 | 100 to 500 | Nc1ccc(-c2ccc(F)cc2)nc1NC(=O)N1Cc2cccnc2C1 [Compound 397]
 |  |  |  | 100 to 500 | 100 to 500 | Nc1ccc(-c2ccc(F)cc2)nc1NC(=O)N1Cc2ccc(CN3CCCC3)cc2C1 [Compound 405]

Structure (SMILES) | Kd [1] [nM] | residence time [1] [min] | residence time [2] [min] | Kd [3] [nM] | EC50 [4] [nM] | IC50 [5] [nM]
Nc1cc(F)c(-c2ccc(F)cc2)cc1NC(=O)C1CCOCC1 [Compound 115] | > 5000 |  | 185 | 500 to 5000 |  | 

From patent EP3319959B1, “HETERO-HALO INHIBITORS OF HISTONE DEACETYLASE” (Alkermes, Inc., priority 2015, dated 2017)
